Like-named read-outs stand apart in the source and are kept apart here. Starred links: 1 amine or outer side, 2 acyl side, 3 side chain; linkers in the order of their positions; H or OH if unused. Residues, ends and D or L forms follow the SMILES beside them. Groups on a side chain read outwards from the residue. *: point of attachment. Cholesteryloxycarbonyl = CC(C)CCC[C@@H](C)[C@H]1CC[C@H]2[C@@H]3CC=C4C[C@@H](OC(=O)*)CC[C@]4(C)[C@H]3CC[C@]12C; X1 = Cc1c(C)c2c(c(C)c1OC(=O)CCC(=O)*)CCC(C)(CCCC(C)CCCC(C)CCCC(C)C)O2; Sphinganine = CCCCCCCCCCCCCCC[C@@H](O)[C@H](CO)N*; CO = O=C([*:1])[*:2]
Legend:
[1] = test system: fully infectious HIV-1 HXB2
[2] = Secondary structure determination by circular dichroism; type: physicochemical; details: percentage of α-helical structure, CD, 10 μM peptide in HEPES buffer 5 mM pH 7.4, 25° C.
Experimental: Secondary structure determination. Circular Dichroism (CD) measurements were performed by using an AppliedPhoto physics spectropolarimeter. The spectra were scanned using a thermostatic quartz cuvette with a path length of 1 mm. Wavelength scans were performed at 25° C.; the average recording time was 15 sec, in 1-nm steps, in the wavelength range of 190-260 nm. Each peptide concentration was 10 μM in HEPES buffer (5 mM, pH 7.4).
Helicity (%): The percentage of α-helical structure was determined as described in the section of Materials and Methods.

[3] = Hydrophobicity by RP-HPLC; type: physicochemical; details: RP-HPLC retention time, analytical C2 column, CH3CN/H2O gradient
Experimental: Peptide synthesis, lipid moiety conjugation, and fluorescent labeling. Peptides were synthesized on Rink Amide MBHA resin by using the F-moc strategy. Several peptides contain a lysine residue at their C-terminus with an MTT side-chain protecting group (Nova-biochem AG, Switzerland) that requires a special deprotection step under mild acidic conditions (2×1 min of 5% trifluoroacetic acid (TFA) in dichloromethane (DCM) and 30 min of 1% TFA in DCM). This enables the conjugation of a lipid moiety or a fluorescent probe to the C-terminus. The chemical synthesis schemes of the following compounds 1-5 are described in FIG. 6. Conjugation of hexadecanoic (palmitic) acid (C16) or α-Tocopherol succinate (Sigma Chemical Co., Israel) to the N-terminus of selected peptides (compound 2 and compound 4, respectively) was performed using standard F-moc chemistry. Conjugation of cholesterol to the N-terminus of a peptide (compound 3) was performed by adding 10 equivalents of cholesteryl chloroformate (Alfa Aesar, USA) dissolved in DCM, together with 3 equivalents of triethyl amine to the peptides' resin. Conjugation of D-erythro-Dihydrosphingosine (D-erythro sphinganine), (Matreya, LCC, USA) to the N- or C-terminus of a peptide (compound 1) was performed as followed: first, 10 equivalents of N,N′-Disuccinimidyl carbonate (DSC) (Chem-Impex Internatinal, USA) and 20 equivalents of N,N-Diisopropylethylamine (DIEA) were added to the resin for 2 hours in dimethylformamide (DMF). Then, 2 equivalents of sphinganine and 2 equivalents of DIEA were added for overnight incubation in DMF anhydrous. The conjugation of D-erythro-Sphingosine (Matreya, LCC, USA) to the peptides (compound 5) was performed as described for compound 1. Addition of NBD-F, fluoride (4-fluoro-7-nitrobenzofurazan) (NBD) fluorescent probe (Biotium, USA) to the N- or C-terminus of selected peptides was performed in DMF for 1 hour. All peptides were cleaved from the resin by a TFA:DDW:TES (93.1:4.9:2 (v/v)) mixture, and purified by reverse-phase high-performance liquid chromatography (RP-HPLC) to >95% homogeneity. The molecular weight of the peptides was confirmed by platform LCA electrospray mass spectrometry. For hydrophobicity tests the peptides were eluted with a flow rate of 0.6 ml/min using a two-step linear gradient from CH3CN/H2O 20:80 v/v to CH3CN/H2O 95:5 v/v in 30 min and from CH3CN/H2O 95:5 v/v to CH3CN/H2O 95:5 in 10 min v/v on an analytical C2 column (7 μm particle size, pore size 100 Å) from Nucleosil.
Hydrophobicity (min): Hydrophobicity was analyzed by RP-HPLC. The retention time of each compound is presented.

[4] = fully infectious HIV-1 system (Table 2)
[5] = read-out: Virus-cell fusion IC50, TZM-bl cells infected with fully contagious HIV, mean±s.d., n=3

Row | SMILES | IC50 [1, 4] | Helicity (%) [2] | Hydrophobicity [3] | IC50 [1, 5] | also measured
1 | CC[C@H](C)[C@H](NC(=O)[C@H](CCCNC(=N)N)NC(=O)[C@H](C)NC(=O)[C@H](CC(C)C)NC(=O)[C@H](CC(C)C)NC(=O)[C@H](CCC(N)=O)NC(=O)[C@H](CCCCN)NC(=O)[C@@H](NC(=O)[C@H](CCCCN)NC(=O)[C@H](Cc1c[nH]c2ccccc12)NC(=O)[C@H](CCC(N)=O)NC(=O)[C@@H](NC(=O)[C@H](CC(C)C)NC(=O)[C@H](CCC(N)=O)NC(=O)[C@H](CC(C)C)NC(=O)[C@@H](N)CCC(=O)O)[C@@H](C)O)[C@@H](C)CC)C(=O)N[C@@H](CC(C)C)C(=O)N[C@@H](CCCCN)C(N)=O [N17mut (e, g) K, ELQLTQWKIKQLLARILK] (H-ELQLTQWKIKQLLARILK-NH2; C-terminus assumed) | > 4000 nM | – | – | – | –
2 | CC[C@H](C)[C@H](NC(=O)CNC(=O)[C@H](Cc1c[nH]c2ccccc12)NC(=O)[C@@H](NC(=O)[C@@H](NC(=O)[C@H](CC(C)C)NC(=O)[C@H](CCC(N)=O)NC(=O)[C@H](CC(C)C)NC(=O)[C@@H](N)CC(C)C)[C@@H](C)O)C(C)C)C(=O)N[C@@H](CCCCN)C(=O)N[C@@H](CCC(N)=O)C(=O)N[C@@H](CC(C)C)C(=O)N[C@@H](CCC(N)=O)C(=O)N[C@@H](C)C(=O)N[C@@H](CCCNC(=N)N)C(=O)N[C@H](C(=O)N[C@@H](CC(C)C)C(N)=O)[C@@H](C)CC [N17, LLQLTVWGIKQLQARIL] (H-LLQLTVWGIKQLQARIL-NH2; C-terminus assumed) | > 4000 nM | 20% | 18.2 min | > 4000 nM | Inhibiting viral infectivity (in words) ([1]; up to 4 μM, the maximal concentration tested): not active
3 | CCCCCCCCCCCCCCC[C@@H](O)[C@H](CO)NC(=O)N[C@@H](CC(C)C)C(=O)N[C@@H](CCC(N)=O)C(=O)N[C@@H](C)C(=O)N[C@@H](CCCNC(=N)N)C(=O)N[C@H](C(=O)N[C@@H](CC(C)C)C(=O)N[C@@H](C)C(=O)N[C@H](C(=O)N[C@@H](CCC(=O)O)C(=O)N[C@@H](CCCNC(=N)N)C(=O)N[C@@H](Cc1ccc(O)cc1)C(=O)N[C@@H](CC(C)C)C(=O)N[C@@H](CCCCN)C(=O)N[C@@H](CC(=O)O)C(=O)N[C@@H](CCC(N)=O)C(=O)N[C@@H](CCC(N)=O)C(=O)N[C@@H](CC(C)C)C(N)=O)C(C)C)[C@@H](C)CC [Sphing-ShN17, Sphinganine-LQARILAVERYLKDQQL] ({Sphinganine-CO}-LQARILAVERYLKDQQL-NH2) | 886 ± 102 nM | – | – | – | –
4 | CCCCCCCCCCCCCCC[C@@H](O)[C@H](CO)NC(=O)NCCCC[C@H](NC(=O)[C@H](CC(N)=O)NC(=O)[C@H](CCCCN)NC(=O)[C@H](CCC(=O)O)NC(=O)[C@H](CCC(N)=O)NC(=O)[C@H](CCC(N)=O)NC(=O)[C@H](CC(N)=O)NC(=O)[C@H](CCC(N)=O)NC(=O)[C@H](CO)NC(=O)[C@H](CCC(=O)O)NC(=O)[C@H](CCC(=O)O)NC(=O)[C@@H](NC(=O)[C@H](CC(C)C)NC(=O)[C@H](CO)NC(=O)[C@H](Cc1c[nH]cn1)NC(=O)[C@@H](NC(=O)[C@H](CC(C)C)NC(=O)[C@H](CO)NC(=O)[C@@H](NC(=O)[C@@H](N)Cc1ccc(O)cc1)[C@@H](C)O)[C@@H](C)CC)[C@@H](C)CC)C(N)=O [DP19K-sphing] (H-YTSLIHSLIEESQNQQEKNK([CO-Sphinganine])-NH2) | – | – | – | – | IC50 ([1]; read-out: IC50 (inhibitory concentration at 50% infectivity), TZM-bl cells, fully contagious HXB2 HIV-1): 350 nM
5 | CCCCCCCCCCCCCCC[C@@H](O)[C@H](CO)NC(=O)NCCCC[C@H](NC(=O)[C@H](CC(C)C)NC(=O)[C@@H](NC(=O)[C@H](CCCNC(=N)N)NC(=O)[C@H](C)NC(=O)[C@H](CC(C)C)NC(=O)[C@H](CC(C)C)NC(=O)[C@H](CCC(N)=O)NC(=O)[C@H](CCCCN)NC(=O)[C@@H](NC(=O)[C@H](CCCCN)NC(=O)[C@H](Cc1c[nH]c2ccccc12)NC(=O)[C@H](CCC(N)=O)NC(=O)[C@@H](NC(=O)[C@H](CC(C)C)NC(=O)[C@H](CCC(N)=O)NC(=O)[C@H](CC(C)C)NC(=O)[C@@H](N)CCC(=O)O)[C@@H](C)O)[C@@H](C)CC)[C@@H](C)CC)C(N)=O [N17mut (e, g) K-sphing, ELQLTQWKIKQLLARILK-Sphinganine] (H-ELQLTQWKIKQLLARILK([CO-Sphinganine])-NH2) | 120 ± 40 nM | – | – | – | –
6 | CC[C@H](C)[C@H](NC(=O)[C@H](CCC(=O)O)NC(=O)[C@H](CCCNC(=N)N)NC(=O)[C@H](CC(=O)O)NC(=O)[C@H](Cc1c[nH]c2ccccc12)NC(=O)[C@H](CCC(=O)O)NC(=O)[C@H](CCSC)NC(=O)[C@H](Cc1c[nH]c2ccccc12)NC(=O)[C@@H](NC(=O)[C@@H](N)[C@@H](C)O)[C@@H](C)O)C(=O)N[C@@H](CC(N)=O)C(=O)N[C@@H](CC(N)=O)C(=O)N[C@@H](Cc1ccc(O)cc1)C(=O)N[C@H](C(=O)N[C@@H](CCCCN)C(N)=O)[C@@H](C)O [PBDK, TTWMEWDREINNYTK] (H-TTWMEWDREINNYTK-NH2; N-terminus and C-terminus assumed) | – | – | – | – | IC50 ([1]; read-out: IC50 (nM), […], fully infectious HIV-1 system (Table 3)): 5350 ± 1700 nM; IC90 ([1]; read-out: IC90 (nM), […], fully infectious HIV-1 system (Table 3)): > 10000 nM
7 | CC[C@H](C)[C@H](NC(=O)[C@H](CC(C)C)NC(=O)[C@H](CO)NC(=O)[C@H](Cc1c[nH]cn1)NC(=O)[C@@H](NC(=O)[C@H](CC(C)C)NC(=O)[C@H](CO)NC(=O)[C@@H](NC(=O)[C@@H](N)Cc1ccc(O)cc1)[C@@H](C)O)[C@@H](C)CC)C(=O)N[C@@H](CCC(=O)O)C(=O)N[C@@H](CCC(=O)O)C(=O)N[C@@H](CO)C(=O)N[C@@H](CCC(N)=O)C(=O)N[C@@H](CC(N)=O)C(=O)N[C@@H](CCC(N)=O)C(=O)N[C@@H](CCC(N)=O)C(=O)N[C@@H](CCC(=O)O)C(=O)N[C@@H](CCCCN)C(=O)N[C@@H](CC(N)=O)C(=O)N[C@@H](CCCCN)C(N)=O [DP19K] (H-YTSLIHSLIEESQNQQEKNK-NH2; C-terminus assumed) | 2210 ± 507 nM | – | – | – | –
8 | CC[C@H](C)[C@H](NC(=O)CNC(=O)[C@H](Cc1c[nH]c2ccccc12)NC(=O)[C@@H](NC(=O)[C@@H](NC(=O)[C@H](CC(C)C)NC(=O)[C@H](CCC(N)=O)NC(=O)[C@H](CC(C)C)NC(=O)[C@@H](N)CC(C)C)[C@@H](C)O)C(C)C)C(=O)N[C@@H](CCCCN)C(=O)N[C@@H](CCC(N)=O)C(=O)N[C@@H](CC(C)C)C(=O)N[C@@H](CCC(N)=O)C(=O)N[C@@H](C)C(N)=O [N14, LLQLTVWGIKQLQA] (H-LLQLTVWGIKQLQA-NH2; C-terminus assumed) | > 4000 nM | – | – | – | –
9 | CC[C@H](C)[C@H](NC(=O)CNC(=O)[C@H](Cc1c[nH]c2ccccc12)NC(=O)[C@@H](NC(=O)[C@@H](NC(=O)[C@H](CC(C)C)NC(=O)[C@H](CCC(N)=O)NC(=O)[C@H](CC(C)C)NC(=O)[C@H](CC(C)C)NC(=O)O[C@H]1CC[C@@]2(C)C(=CC[C@H]3[C@@H]4CC[C@H]([C@H](C)CCCC(C)C)[C@@]4(C)CC[C@@H]32)C1)[C@@H](C)O)C(C)C)C(=O)N[C@@H](CCCCN)C(=O)N[C@@H](CCC(N)=O)C(=O)N[C@@H](CC(C)C)C(=O)N[C@@H](CCC(N)=O)C(=O)N[C@@H](C)C(=O)N[C@@H](CCCNC(=N)N)C(=O)N[C@H](C(=O)N[C@@H](CC(C)C)C(N)=O)[C@@H](C)CC [Cholesterol-N17] (Cholesteryloxycarbonyl-LLQLTVWGIKQLQARIL-NH2) | > 4000 nM | <10% | 28.9 min | > 4000 nM | –
10 | CC[C@H](C)[C@H](NC(=O)CNC(=O)[C@H](Cc1c[nH]c2ccccc12)NC(=O)[C@@H](NC(=O)[C@@H](NC(=O)[C@H](CC(C)C)NC(=O)[C@H](CCC(N)=O)NC(=O)[C@H](CC(C)C)NC(=O)[C@H](CC(C)C)NC(=O)CCC(=O)Oc1c(C)c(C)c2c(c1C)CCC(C)(CCCC(C)CCCC(C)CCCC(C)C)O2)[C@@H](C)O)C(C)C)C(=O)N[C@@H](CCCCN)C(=O)N[C@@H](CCC(N)=O)C(=O)N[C@@H](CC(C)C)C(=O)N[C@@H](CCC(N)=O)C(=O)N[C@@H](C)C(=O)N[C@@H](CCCNC(=N)N)C(=O)N[C@H](C(=O)N[C@@H](CC(C)C)C(N)=O)[C@@H](C)CC (stereo partly drawn) [Tocopherol-N17] (X1-LLQLTVWGIKQLQARIL-NH2) | > 4000 nM | <10% | 28.9 min | > 4000 nM | –

Source: US20150045291A1, “LIPOPEPTIDE CONJUGATES COMPRISING SPHINGOLIPID AND HIV GP41 DERIVED PEPTIDES” (priority 2012, published 2015)
